Measurements from patent US12624068B2, “Exon skipping by peptide nucleic acid derivatives” (OliPass Corporation, priority 2016, dated 2026).
[C(1O2)] = modified PNA monomer acting as cytosine, C(pOq) type, 1O2; [A(5)] = modified PNA monomer acting as adenine, A(p) type, p=5; [G(5)] = modified PNA monomer acting as guanine, G(p) type, p=5; [G(6)] = modified PNA monomer acting as guanine, G(p) type, p=6; {Fethoc} = N-terminal Fethoc cap; {NH2} = C-terminal amide

Experiments:
[1] = system: human SCN9A pre-mRNA; experiment: SCN9A nested PCR for exon skipping in PC3 cells; format: cell-based
Description: Given that PC3 cells are known to abundantly express the human SCN9A pre-mRNA [Br. J. Pharmacol. vol 156, 420-431 (2009)], “SCN-ASO 7” was evaluated by SCN9A nested PCR for its ability to induce the skipping of exon 4 in the human SCN9A pre-mRNA in PC3 cells as follows. [Cell Culture & ASO Treatment] PC3 cells (Cat. No. CRL-1435, ATCC) were maintained in Ham's F-12K medium supplemented with 10% FBS, 1% streptomycin/penicillin, 1% L-glutamine, and 1% sodium pyruvate under 5% CO2 atmosphere at 37° C. PC3 cells grown in 60 mm culture dish containing 5 mL medium were treated with “SCN-ASO 7” at 0 (negative control), 10, 100 or 1,000 zM. [RNA Extraction] Following an 18 hour incubation, the PC3 cells were treated with 100 μg/mL cycloheximide for another 6 hours in order to freeze the ribosomal translation. Then total RNA was extracted from cells using “Universal RNA Extraction Kit” (Cat. Number 9767, Takara) according to the manufacturer's instructions. [cDNA Synthesis by One Step RT-PCR] 200 ng of RNA template was used for a 25 μL reverse transcription reaction using Super Script® One-Step RT-PCR kit with Platinum® Taq polymerase (Cat. Number 10928-042, Invitrogen) and a set of exon-specific primers [SCN-exon 2_forward: (5'→3') […] NO: 74), and SCN-exon 9_reverse: (5'→3') […] [Nested PCR Amplification] 1 μL of cDNA solution (diluted by 100×) was subjected to a 20 μl PCR amplification by nested PCR (Cat. Number K2612, Bioneer) against a set of exon-specific primers [SCN-exon 3n_forward: (5'→3') […] NO: 76); and SCN-exon 8_reverse: (5'→3') […] Thus “SCN-exon 3n_forward” recognizes “the junction of exon 3 and exon 5” more selectively than “the junction of exon 3 and exon 4” found in the full length SCN9A mRNA. The primer sequence was designed to detect SCN9A splice variants lacking exon 4 more sensitively than the full length SCN9A mRNA. Such an exon skipping primer would be useful to detect mRNA splice variants having poor metabolic stability, since the full-length mRNA tends to show good metabolic stability gained through the evolution over billions years. [Identification of Exon Skipping Products] The nested PCR products were subjected to electrophoretic separation on a 2% agarose gel. The bands of target size were collected and analyzed by Sanger sequencing. […] “SCN-ASO 27” was evaluated for its ability to induce the skipping of “exon 4” in PC3 cells as described in “SCN9A Example 1”, unless noted otherwise. [Cell Culture & ASO Treatment] PC3 cells grown in 60 mm culture dish containing 5 mL culture medium were treated with “SCN-ASO 27” at 0 (negative control), 1, 10 or 100 zM. [Nested PCR Amplification] […] NO: 89); and SCN-exon 9n_reverse: (5'→3') […] “SCN-ASO 27” was evaluated for its ability to induce the skipping of “exon 4” in PC3 cells as described in “SCN9A Example 8”, unless noted otherwise. In this experiment, PC3 cells were treated with “SCN-ASO 27” at 0 (negative control), 1, 10, 100 and 1,000 aM for 24 hours. [Nested PCR Amplification] The nested PCR reaction was carried out against a set of primers of [SCN-exon 3/6_forward: (5'→3') […] NO: 91); and SCN-exon 9n_reverse: (5'→3') […]

[2] = system: 10-mer complementary DNA; experiment: Tm between PNA derivatives and 10-mer complementary DNA (N- or C-terminal); format: binding; settings: uncorrected
Outline: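 4 μM 10-mer PNA with 4 μM complementary 10-mer DNA in pH 7.16 buffer (10 mM sodium phosphate, 100 mM NaCl) was heated at 90 °C for a minute, slowly cooled to ambient, then Tm measured by UV absorbance at 260 nm.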

Substance	skipping of SCN9A exon 4 by nested PCR ([1]; PC3 cells, 1 aM, 24 hours)	skipping of SCN9A exon 4 by nested PCR ([1]; PC3 cells, 10 and 100 zM, 24 hours)	Tm Value, 10-mer DNA against C-Terminal [2] [°C]	Tm Value, 10-mer DNA against N-Terminal [2] [°C]	SCN9A exon skipping by nested PCR (exon 3/6 junction primer) ([1]; PC3 cells, 1, 10, 100 and 1,000 aM, 24 hours)	SCN9A exon skipping by nested PCR ([1]; PC3 cells, 1, 10 or 100 zM)	PCR band intensity for the full-length SCN9A mRNA ([1]; PC3 cells, 10 zM and 100 zM)
Fethoc-AC(1O2)T-TA(5)C-G(6)CA-A(5)AA(5)-AC(1O2)A-A(5)-NH2 (ACTTACGCAAAAACAA; all peptide nucleic acid (PNA), [C(1O2)] at 2, 14, [A(5)] at 5, 10, 12, 16, [G(6)] at 7, 5' {Fethoc}, 3' {NH2}; peptide nucleic acid written N to C) [SCN-ASO 7]	conspicuously strong	visible	64.6	65.0	–	–	–
Fethoc-AA(5)G-TG(5)T-A(5)CC(1O2)-TA(5)A-A(5)C-NH2 (AAGTGTACCTAAAC; splice-switching; all peptide nucleic acid (PNA), [A(5)] at 2, 7, 11, 13, [G(5)] at 5, [C(1O2)] at 9, 5' {Fethoc}, 3' {NH2}; peptide nucleic acid written N to C) [SCN-ASO 27]	–	–	69.0	77.0	yielded a strong PCR band assignable to the skipping of exons 4-5	yielded a strong PCR band assignable to the skipping of exons 4-5	stronger in treatment samples of 10 zM and 100 zM ASO than in the samples of the negative control
